Format in all cases: biochemical
One assay deals with T1, JAK3 (Homo sapiens, UniProt P52333).
T1 sequence (P52333 1-1124): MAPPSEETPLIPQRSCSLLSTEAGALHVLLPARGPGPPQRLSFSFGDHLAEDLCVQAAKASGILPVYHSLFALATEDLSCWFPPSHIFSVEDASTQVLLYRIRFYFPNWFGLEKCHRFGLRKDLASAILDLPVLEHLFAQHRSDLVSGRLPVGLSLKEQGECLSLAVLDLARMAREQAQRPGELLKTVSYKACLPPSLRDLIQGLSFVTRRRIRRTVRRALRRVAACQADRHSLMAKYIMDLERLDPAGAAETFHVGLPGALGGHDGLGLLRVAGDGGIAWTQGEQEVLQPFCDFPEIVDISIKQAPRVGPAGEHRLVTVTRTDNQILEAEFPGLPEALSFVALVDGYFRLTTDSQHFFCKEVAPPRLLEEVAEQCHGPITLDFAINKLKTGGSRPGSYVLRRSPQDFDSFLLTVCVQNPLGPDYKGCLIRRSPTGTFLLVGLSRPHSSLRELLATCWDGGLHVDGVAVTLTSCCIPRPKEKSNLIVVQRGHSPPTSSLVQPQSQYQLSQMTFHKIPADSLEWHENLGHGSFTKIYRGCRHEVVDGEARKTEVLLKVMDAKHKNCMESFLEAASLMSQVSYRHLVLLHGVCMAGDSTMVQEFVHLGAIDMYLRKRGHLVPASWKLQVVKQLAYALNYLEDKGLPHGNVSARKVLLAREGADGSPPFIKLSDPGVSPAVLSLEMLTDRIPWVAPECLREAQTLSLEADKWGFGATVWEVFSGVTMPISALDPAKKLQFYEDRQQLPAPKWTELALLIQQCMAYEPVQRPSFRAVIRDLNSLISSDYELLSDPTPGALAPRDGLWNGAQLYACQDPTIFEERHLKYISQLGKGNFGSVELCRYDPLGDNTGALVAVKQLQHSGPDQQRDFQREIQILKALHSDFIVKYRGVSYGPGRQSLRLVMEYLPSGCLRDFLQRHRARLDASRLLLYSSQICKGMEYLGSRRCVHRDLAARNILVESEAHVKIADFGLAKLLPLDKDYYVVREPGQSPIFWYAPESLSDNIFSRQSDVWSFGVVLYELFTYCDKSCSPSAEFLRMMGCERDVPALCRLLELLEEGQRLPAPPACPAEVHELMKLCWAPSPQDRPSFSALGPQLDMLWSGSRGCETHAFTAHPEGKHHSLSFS
The assay is described as follows: Omnia assay for potency against JAK3. To be noted: read-out: JAK3 Inhibition. The source says:
(§1) The protocol below describes continuous-read kinase assays to measure inherent potency of compounds against active forms of EGFR (WT) and EGFR (T790M/L858R) enzymes. The mechanics of the assay platform are best described by the vendor (Invitrogen, Carlsbad, Calif.) on their website at the following URL: http://www.invitrogen.com/content.cfm?pageid=11338 or http://www.invitrogen.com/site/us/en/home/Products-and-Services/Applications/Drug-Discovery/Target-and-Lead-Identification-and-Validation/KinaseBiology/KB-Misc/Biochemical-Assays/Omnia-Kinase-Assays.html.
(§2) Briefly, 10× stocks of EGFR-WT (PV3872) from Invitrogen and EGFR-T790M/L858R (40350) from BPS Bioscience, San Diego, Calif., 1.13×ATP (AS001A) and appropriate Tyr-Sox conjugated peptide substrates (KCZI001) were prepared in 1× kinase reaction buffer consisting of 20 mM Tris, pH 7.5, 5 mM MgCl2, 1 mM EGTA, 5 mM β-glycerophosphate, 5% glycerol (10× stock, KB002A) and 0.2 mM DTT (DS001A). 5 μL of each enzyme were pre-incubated in a Corning (#3574) 384-well, white, non-binding surface microtiter plate (Corning, NY) for 30 min. at 27° C. with a 0.5 μL volume of 50% DMSO and serially diluted compounds prepared in 50% DMSO. Kinase reactions were started with the addition of 45 μL of the ATP/Tyr-Sox peptide substrate mix and monitored every 30-90 seconds for 60 minutes at λex360/λem485 in a Synergy^4 plate reader from BioTek (Winooski, Vt.). At the conclusion of each assay, progress curves from each well were examined for linear reaction kinetics and fit statistics (R^2, 95% confidence interval, absolute sum of squares). Initial velocity (0 minutes to ˜30 minutes) from each reaction was determined from the slope of a plot of relative fluorescence units vs time (minutes) and then plotted against inhibitor concentration to estimate IC50 from log [Inhibitor] vs Response, Variable Slope model in GraphPad Prism from GraphPad Software (San Diego, Calif.).
The Omnia Assay Protocol for potency assessment against JAK3 is performed in a substantially similar manner as that described in Example 25 above except that the modified JAK3-optimized reagent conditions are: • [JAK3]=5 nM, [ATP]=5 μM, [Y12-Sox]=5 μM (ATP KMapp ˜[…]).

The next assay concerns the target BTK (Homo sapiens, UniProt Q06187). The assay is described as follows: Omnia assay for potency against BTK. To be noted: read-out: BTK Inhibition.
Excerpt: as §1, §2
The Omnia Assay Protocol for potency assessment against BTK is performed in a substantially similar manner as that described in Example 25 above except that the modified BTK-optimized reagent conditions are: • [BTK]=5 nM, [ATP]=[…], [Y5-Sox]=[…] (ATP KMapp ˜[…]).

In another assay the target is T2, EGFR (WT) (Homo sapiens, UniProt P00533).
T2 construct: purchased Invitrogen PV3872
The assay is described as follows: Omnia continuous-read kinase assay, EGFR (WT). To be noted: read-out: EGFR inhibtion.
Excerpt: as §1, §2
The EGFR-WT- and EGFR T790M/L858R-modified optimized reagent conditions are: • [EGFR-WT]=5 nM, [ATP]=[…], [Y12-Sox]=[…]; and [EGFR-T790M/L858R]=3 nM, [ATP]=[…], [Y12-Sox]=[…].

For 21 compounds, IC50 results are on record in patent US9296704B2, “Substituted pyrimidines as protein kinase inhibitors” (CELGENE AVILOMICS RESEARCH, INC., priority 2007, dated 2016).

pIC50: −log10 of the molar value.

Sequence of BTK (Q06187 whole entry): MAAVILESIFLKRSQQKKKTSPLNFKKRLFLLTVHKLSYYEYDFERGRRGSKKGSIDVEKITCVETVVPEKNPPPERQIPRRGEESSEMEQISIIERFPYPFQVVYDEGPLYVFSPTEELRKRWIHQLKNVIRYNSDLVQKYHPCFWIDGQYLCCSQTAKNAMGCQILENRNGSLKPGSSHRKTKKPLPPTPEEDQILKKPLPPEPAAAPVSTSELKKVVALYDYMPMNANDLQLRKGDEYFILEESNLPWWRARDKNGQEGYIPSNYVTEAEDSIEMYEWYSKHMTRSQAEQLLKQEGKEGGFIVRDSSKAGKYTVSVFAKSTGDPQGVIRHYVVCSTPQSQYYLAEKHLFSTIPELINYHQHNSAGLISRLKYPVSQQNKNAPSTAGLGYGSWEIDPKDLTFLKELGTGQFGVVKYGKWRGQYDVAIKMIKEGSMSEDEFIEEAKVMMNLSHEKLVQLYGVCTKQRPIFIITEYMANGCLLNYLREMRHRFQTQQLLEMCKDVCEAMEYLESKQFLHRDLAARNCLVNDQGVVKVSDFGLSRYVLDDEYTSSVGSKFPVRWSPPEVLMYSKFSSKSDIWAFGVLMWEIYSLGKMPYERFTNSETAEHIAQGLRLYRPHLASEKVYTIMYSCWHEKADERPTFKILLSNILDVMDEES
T2 sequence (P00533 25-1210): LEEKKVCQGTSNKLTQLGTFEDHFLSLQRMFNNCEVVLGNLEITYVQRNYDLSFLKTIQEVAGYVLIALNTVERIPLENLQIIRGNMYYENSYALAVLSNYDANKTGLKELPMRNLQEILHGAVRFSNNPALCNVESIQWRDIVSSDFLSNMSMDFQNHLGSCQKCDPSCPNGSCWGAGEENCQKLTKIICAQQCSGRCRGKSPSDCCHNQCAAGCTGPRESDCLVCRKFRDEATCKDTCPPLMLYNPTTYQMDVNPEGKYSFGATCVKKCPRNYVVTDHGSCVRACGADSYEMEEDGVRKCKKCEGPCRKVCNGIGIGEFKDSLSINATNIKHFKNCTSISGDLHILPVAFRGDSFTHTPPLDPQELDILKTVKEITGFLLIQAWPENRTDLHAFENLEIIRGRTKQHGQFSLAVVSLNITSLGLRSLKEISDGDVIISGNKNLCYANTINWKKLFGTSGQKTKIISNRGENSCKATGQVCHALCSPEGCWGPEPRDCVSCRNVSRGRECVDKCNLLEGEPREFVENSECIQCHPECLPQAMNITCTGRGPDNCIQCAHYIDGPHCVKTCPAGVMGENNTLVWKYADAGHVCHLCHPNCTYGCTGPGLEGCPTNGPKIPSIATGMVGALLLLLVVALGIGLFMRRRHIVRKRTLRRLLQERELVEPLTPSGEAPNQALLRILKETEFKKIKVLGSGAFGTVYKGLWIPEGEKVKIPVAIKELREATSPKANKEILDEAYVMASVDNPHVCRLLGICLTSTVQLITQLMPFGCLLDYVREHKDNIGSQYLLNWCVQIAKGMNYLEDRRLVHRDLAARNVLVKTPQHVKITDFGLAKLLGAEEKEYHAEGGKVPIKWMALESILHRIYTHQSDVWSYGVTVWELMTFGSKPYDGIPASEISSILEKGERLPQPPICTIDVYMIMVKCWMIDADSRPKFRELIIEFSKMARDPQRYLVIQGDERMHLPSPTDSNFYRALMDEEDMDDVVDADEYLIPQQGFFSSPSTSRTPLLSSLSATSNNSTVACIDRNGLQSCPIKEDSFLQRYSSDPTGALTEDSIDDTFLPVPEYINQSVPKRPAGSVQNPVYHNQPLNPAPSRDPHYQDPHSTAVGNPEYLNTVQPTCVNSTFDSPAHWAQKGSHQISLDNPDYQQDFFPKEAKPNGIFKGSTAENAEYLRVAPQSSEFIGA

Take `CC(Cl)C(=O)Nc1cccc(Nc2cc(Nc3ccc(F)c(Cl)c3)ncn2)c1` (centres unmarked) [I-50, 2-chloro-N-[3-(6-{3-chloro-4-fluorophenyl}aminopyrimidin-4-yl)aminophenyl]propionamide]: the pIC50 was 6.00 to 7.00 on JAK3 and 5.00 to 6.00 on BTK.

Take `CN(C)C/C=C/C(=O)Nc1cccc(Nc2cc(Nc3ccc(Oc4ccccc4)cc3)ncn2)c1` [I-62, (E)-N-3-[6-(4-phenoxyphenyl)amino-pyrimidin-4-yl]aminophenyl-4-(dimethylamino)but-2-enamide]: the pIC50 was 6.00 to 7.00 at JAK3 and no less than 8.00 on BTK.

With `C#Cc1cccc(Nc2cc(Nc3cccc(NC(=O)C=C)c3)ncn2)c1` [I-68, N-3-[6-(3-ethynylphenylamino)-pyrimidin-4-yl]aminophenyl-2-propenamide], the pIC50 at JAK3 was no less than 8.00; on BTK it was 7.00 to 8.00; on EGFR (WT), no less than 8.00.

`O=C(CCl)Nc1cccc(Nc2cc(Oc3ccc(NC(=O)Nc4ccc(Cl)c(C(F)(F)F)c4)cc3)ncn2)c1` [I-69, N-3-[6-(4-[4-[[4-chloro-3-(trifluoromethyl)phenyl]amino]-carbonyl]amino)phenoxypyrimidin-4-yl]aminophenylchloroacetamide]: the results for the pIC50 on JAK3, at BTK and at EGFR (WT) were 6.00 to 7.00, 6.00 to 7.00 and 7.00 to 8.00, respectively.

Regarding `C=CC(=O)N1CCC(Nc2cc(Nc3ccc(F)c(Cl)c3)ncn2)C1` (centres unmarked) [I-70, 1-(3-(6-(3-chloro-4-fluorophenyamino)pyrimidin-4-ylamino)pyrrolidin-1-yl)prop-2-en-1-one], the figures for the pIC50 on JAK3, at BTK and on EGFR (WT) were 6.00 to 7.00, 6.00 to 7.00 and no less than 8.00, respectively.

As for `C=CC(=O)N1CCCC(Nc2cc(Nc3ccc(F)c(Cl)c3)ncn2)C1` (centres unmarked) [I-71, 1-(3-(6-(3-chloro-4-fluorophenyamino)pyrimidin-4-ylamino)piperidin-1-yl)prop-2-en-1-one], the figures for the pIC50 on JAK3, on BTK and at EGFR (WT) were 5.00 to 6.00, 5.00 to 6.00 and no less than 8.00, respectively.

Regarding `CN(C)C/C=C/C(=O)Nc1cccc(Nc2cc(Nc3ccccc3)ncn2)n1` [I-73, (E)-4-(dimethylamino)-N-(6-(6-(phenylamino)pyrimidin-4-ylamino)pyridine-2-yl)but-2-enamide], the pIC50 on JAK3, at BTK and at EGFR (WT) was no less than 8.00 in each case.

In the case of `C=CC(=O)Nc1cccc(Nc2cc(Nc3cccc(Oc4ccccc4)c3)ncn2)c1` [I-75, N-(3-(6-(3-phenoxyphenylamino)pyrimidin-4-ylamino)phenyl)acrylamide], the pIC50 was 6.00 to 7.00 on JAK3, no less than 8.00 at BTK and no less than 8.00 at EGFR (WT).

Take `C=CC(=O)Nc1ccc(Nc2cc(Nc3ccc(Oc4ccccc4)cc3)ncn2)cc1` [I-80, N-4-[6-(4-phenoxyphenyl)amino-pyrimidin-4-yl]aminophenylpropenamide]: the values for the pIC50 on JAK3, on BTK and at EGFR (WT) were no more than 5.00, 5.00 to 6.00 and 6.00 to 7.00, respectively.

Consider `C=C(C)C(=O)c1cccc(Nc2cc(Nc3ccc(Oc4ccccc4)cc3)ncn2)c1` [I-83, 2-methyl-1-(3-(6-(4-phenoxyphenylamino)pyrimidin-4-ylamino)phenyl)prop-2-en-1-one], for which the pIC50 at BTK and on EGFR (WT) was no less than 8.00 each time.

For `C=C(C#N)C(O)c1cccc(Nc2cc(Nc3ccc(Oc4ccccc4)cc3)ncn2)c1` (centres unmarked) [I-84], the pIC50 on JAK3 is no more than 5.00; at BTK, 5.00 to 6.00; at EGFR (WT), 7.00 to 8.00.

Turning to `C=CC(=O)N1CCC(Nc2cc(Nc3ccc(Oc4ccccc4)cc3)ncn2)C1` (centres unmarked) [I-85, 1-(3-(6-(4-phenoxyphenylamino)pyrimidin-4-ylamino)pyrrolidin-1-yl)prop-2-en-1-one], the results for the pIC50 on JAK3, at BTK and at EGFR (WT) were 5.00 to 6.00, 7.00 to 8.00 and 7.00 to 8.00, respectively.

Take `CC(C)=CC(=O)c1cccc(Nc2cc(Nc3ccc(Oc4ccccc4)cc3)ncn2)c1` [I-87, 3-methyl-1-(3-(6-(4-phenoxyphenylamino)pyrimidin-4-ylamino)phenyl)but-2-en-1-one]: the pIC50 at BTK was no more than 5.00; at EGFR (WT), 7.00 to 8.00.

Take `C=CC(=O)Nc1cccc(Nc2cc(Oc3ccc(OC)cc3)ncn2)n1` [I-91, N-(6-(6-(4-methoxyphenoxy)pyrimidin-4-ylamino)pyridine-2-yl)acrylamide]: the pIC50 on BTK and at EGFR (WT) was no less than 8.00 each time.

With `CN(C)C/C=C/C(=O)Nc1cccc(Nc2cc(Oc3ccc(F)c(Cl)c3)ncn2)c1` [I-92)], the pIC50 on EGFR (WT) is no less than 8.00.

As for `CN(C)C/C=C/C(=O)Nc1cccc(Nc2cc(Oc3ccc(F)c(Cl)c3)ncn2)c1` [I-92, (E)-N-(3-(6-(3-chloro-4-fluorophenoxy)pyrimidin-4-ylamino)phenyl)-4-(dimethylamino)but-2-enamide], the pIC50 at JAK3 and at BTK was 7.00 to 8.00 in each case.

Regarding `C=CC(=O)Nc1cccc(Nc2cc(Oc3ccc(Oc4ccccc4)cc3)ncn2)c1` [I-97, N-(3-(6-(4-phenoxyphenoxy)pyrimidin-4-ylamino)phenyl)acrylamide], the pIC50 was 6.00 to 7.00 on BTK and no less than 8.00 on EGFR (WT).

For the compound `C=CC(=O)Nc1cc(Nc2cc(Oc3ccc(Oc4ccccc4)cc3)ncn2)cc(C(=O)NCCOC)c1` [I-102, 3-acrylamido-N-(2-methoxyethyl)-5-(6-(4-phenoxyphenoxy)pyrimidin-4-ylamino)benzamide], the pIC50 was 7.00 to 8.00 on BTK and no less than 8.00 on EGFR (WT).

In the case of `C=CC(=O)Nc1cccc(Nc2cc(Sc3ccc(Oc4ccccc4)cc3)ncn2)c1` [I-103, N-(3-(6-(4-phenoxyphenylthio)pyrimidin-4-ylamino)phenyl)acrylamide], the pIC50 at BTK is 6.00 to 7.00; at EGFR (WT) it was no less than 8.00.

Turning to `C=CC(=O)N1CC(C)(C)Oc2ccc(Nc3cc(Oc4cccc(Cl)c4)ncn3)cc21` [I-104, 1-(6-(6-(3-chlorophenoxy)pyrimidin-4-ylamino)-2,2-dimethyl-2H-benzo[b][1,4]oxazin-4(3H)-yl)prop-2-en-1-one], the pIC50 on BTK and on EGFR (WT) was no less than 8.00 in each case.

Consider `C=CC(=O)Nc1cc(Nc2cc(Oc3cccc(Cl)c3)ncn2)ccc1N1CCOCC1` [I-105, N-(2-morpholino-5-(6-(3-chlorophenoxy)pyrimidin-4-ylamino)phenyl)acrylamide], for which the pIC50 was 7.00 to 8.00 on BTK and no less than 8.00 on EGFR (WT).
